Some targets named below: FGFR2 (Homo sapiens, UniProt P21802); FGFR1 (Homo sapiens, UniProt P11362); FGFR3 (Homo sapiens, UniProt P22607).
Common to all, as to experiment: mobility shift kinase assay
What all share (assay type): biochemical

Sequence of FGFR3 (P22607 23-806): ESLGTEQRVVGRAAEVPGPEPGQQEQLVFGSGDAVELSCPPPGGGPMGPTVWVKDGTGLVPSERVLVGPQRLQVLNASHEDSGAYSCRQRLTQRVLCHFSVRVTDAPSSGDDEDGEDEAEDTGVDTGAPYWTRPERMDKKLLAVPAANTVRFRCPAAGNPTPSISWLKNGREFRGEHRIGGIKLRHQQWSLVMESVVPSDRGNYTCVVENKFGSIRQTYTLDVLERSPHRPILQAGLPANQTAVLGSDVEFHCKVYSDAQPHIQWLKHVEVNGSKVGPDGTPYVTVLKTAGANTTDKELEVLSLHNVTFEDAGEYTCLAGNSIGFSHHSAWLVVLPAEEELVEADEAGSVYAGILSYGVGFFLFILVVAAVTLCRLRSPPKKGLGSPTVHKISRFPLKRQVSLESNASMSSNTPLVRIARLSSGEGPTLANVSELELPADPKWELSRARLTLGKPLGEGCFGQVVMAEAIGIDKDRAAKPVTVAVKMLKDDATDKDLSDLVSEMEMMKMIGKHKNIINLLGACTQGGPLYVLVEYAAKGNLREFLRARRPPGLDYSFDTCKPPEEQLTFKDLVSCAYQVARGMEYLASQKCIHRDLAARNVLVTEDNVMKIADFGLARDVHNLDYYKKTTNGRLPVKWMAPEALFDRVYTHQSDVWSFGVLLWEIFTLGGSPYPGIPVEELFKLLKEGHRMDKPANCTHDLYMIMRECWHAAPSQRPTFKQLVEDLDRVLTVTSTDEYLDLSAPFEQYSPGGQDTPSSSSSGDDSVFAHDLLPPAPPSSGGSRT
Sequence of FGFR2 (P21802 22-821): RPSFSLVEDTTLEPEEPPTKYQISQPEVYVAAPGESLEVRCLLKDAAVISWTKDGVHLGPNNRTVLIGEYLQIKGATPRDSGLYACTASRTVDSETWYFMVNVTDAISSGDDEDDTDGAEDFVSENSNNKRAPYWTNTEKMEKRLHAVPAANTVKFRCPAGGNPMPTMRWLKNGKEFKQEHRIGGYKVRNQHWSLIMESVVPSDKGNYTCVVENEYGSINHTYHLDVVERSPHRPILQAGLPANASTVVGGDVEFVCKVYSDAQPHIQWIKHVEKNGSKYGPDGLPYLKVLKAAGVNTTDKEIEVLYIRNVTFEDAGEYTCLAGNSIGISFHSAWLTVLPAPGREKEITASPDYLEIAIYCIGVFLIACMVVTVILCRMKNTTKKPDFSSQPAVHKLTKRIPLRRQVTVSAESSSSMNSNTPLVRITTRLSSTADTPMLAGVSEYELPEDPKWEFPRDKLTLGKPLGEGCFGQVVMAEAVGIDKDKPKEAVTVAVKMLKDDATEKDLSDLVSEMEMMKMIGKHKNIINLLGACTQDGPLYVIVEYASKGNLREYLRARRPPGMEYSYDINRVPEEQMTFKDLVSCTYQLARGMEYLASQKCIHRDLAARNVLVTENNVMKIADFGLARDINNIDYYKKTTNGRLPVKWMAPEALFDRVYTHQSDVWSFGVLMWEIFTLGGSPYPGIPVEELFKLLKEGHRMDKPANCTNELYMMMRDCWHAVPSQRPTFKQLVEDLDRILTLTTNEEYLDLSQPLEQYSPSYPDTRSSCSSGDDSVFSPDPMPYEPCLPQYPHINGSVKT
Sequence of FGFR1 (P11362 22-822): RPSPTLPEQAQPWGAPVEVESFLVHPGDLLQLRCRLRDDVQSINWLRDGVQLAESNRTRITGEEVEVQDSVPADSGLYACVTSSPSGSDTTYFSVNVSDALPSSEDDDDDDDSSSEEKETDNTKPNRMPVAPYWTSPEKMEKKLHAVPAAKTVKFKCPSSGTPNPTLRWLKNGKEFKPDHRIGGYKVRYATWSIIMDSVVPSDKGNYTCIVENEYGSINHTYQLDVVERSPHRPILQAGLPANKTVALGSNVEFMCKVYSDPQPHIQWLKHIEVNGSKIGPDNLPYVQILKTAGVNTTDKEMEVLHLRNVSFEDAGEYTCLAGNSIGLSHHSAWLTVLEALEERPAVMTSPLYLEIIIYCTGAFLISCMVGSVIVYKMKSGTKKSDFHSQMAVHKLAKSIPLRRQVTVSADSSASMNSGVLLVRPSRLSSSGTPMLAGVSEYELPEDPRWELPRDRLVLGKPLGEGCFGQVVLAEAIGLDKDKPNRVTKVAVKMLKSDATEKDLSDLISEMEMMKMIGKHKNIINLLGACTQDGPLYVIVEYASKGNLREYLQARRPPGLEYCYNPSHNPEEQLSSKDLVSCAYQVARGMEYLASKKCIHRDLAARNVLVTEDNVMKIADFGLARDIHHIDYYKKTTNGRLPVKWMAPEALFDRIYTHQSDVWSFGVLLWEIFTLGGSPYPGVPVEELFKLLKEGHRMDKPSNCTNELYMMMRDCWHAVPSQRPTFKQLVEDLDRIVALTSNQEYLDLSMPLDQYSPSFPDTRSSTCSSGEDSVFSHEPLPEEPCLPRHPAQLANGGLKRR

With CYY292, the IC50 (in general, the concentration needed to halve the response being measured) at FGFR2 was found to be 28 nM; at FGFR1 it was 28 nM; on FGFR3, 78 nM.

The values above are taken from PMC10425802 (Genes & Diseases, 2023).
